Measured values from US12011426B2, “Methods of metabolic regulation of mitochondria for treating neural injury and neurological disorders” (The USA, as represented by the Secretary, Dept. of Health …, priority 2018, dated 2024).

How the values were obtained:
[1] = system: retina ganglion cells (RGCs); test: Optic nerve crush (ONC), retina ganglion cell survival; assay type: in vivo, ground squirrel; details: awake animals; injected into the eye before and after the ONC surgery
Excerpt: Previous work has shown that succinate regulates macrophages, causing them to switch between pro-inflammatory and anti-inflammatory states (Mills, et al., (2016) Succinate Dehydrogenase Supports Metabolic Repurposing of Mitochondria to Drive Inflammatory Macrophages. Cell, […]; 457-470.e13). Thus, the inventors hypothesized that immune regulation due to reduced succinate levels may occur in the retina during hibernation, and that this may subsequently affect cellular response to neural injury. To test this hypothesis, optic nerve crush (ONC), a classic axonal injury experiment, was performed in awake and in hibernating ground squirrels. Retina ganglion cells (RGCs) appeared to survive ONC during hibernation (FIG. 4). Intriguingly, a key cellular response difference between awake and hibernating animals to ONC is microglial aggregation and activation, in line with the hypothesis that low succinate level during hibernation may prevent microglia from activation in response to injury. To further test this hypothesis, a second experiment was done in which dimethyl malonate (DMM), an inhibitor of SDH, was injected into the eye before and after the ONC surgery in awake animals to create a lower succinate condition, thereby mimicking hibernation. […] To further examine the role of microglia, microglia were pharmacologically eliminated before ONC surgery in awake animals. […]

[2] = system: succinate dehydrogenase (SDH); test: SDH activity in the retina of ONC-injured active TLGSs; assay type: in vivo, thirteen lined ground squirrel (TLGS); details: intraocular injection
Excerpt: (§1) It is known in the art that a key event in the LPS-induced macrophage activation is the over-production of mitochondrial ROS driven by the hyperpolarization of mitochondrial membrane potential and SDH-accelerated succinate oxidation (Mills et al., 2016). However, for the retina, it is challenging to perform live ROS measurement, because enucleation causes an acute ROS surge due to severing of the optic nerve. Thus, a method was developed to visualize in situ mitochondrial ROS production in thirteen lined ground squirrel (TLGS) retina with optic nerve crush (ONC), that used a mitochondrial ROS dye—MitoNeoD (Shchepinova et al., 2017). […] In active TLGS retina with partial ONC injuries, it was observed that above the optic nerve fiber/RGC layers there were cells decorated with bright MitoNeoOH (oxidized and fluorescent form of MitoNeoD) signals (arrows in FIG. 6D) overlapping with a mitochondrial protein marker (TOM20) (FIGS. 7A, 7B, and 7C). These cells were then confirmed to be mostly microglial cells (FIGS. 7D, 7E, and 7F). It was then confirmed that intraocular injection of DMM indeed lowered SDH activity in the retina of ONC-injured active TLGSs (FIG. 8B).

mitochondrial ROS = test: In situ mitochondrial ROS production in retina after partial ONC (MitoNeoD dye); assay type: in vivo, thirteen lined ground squirrel (TLGS); details: active TLGSs with ONC; intraocular injection
Excerpt: as §1

[3] = system: microglia cell line (BV2); test: LPS-induced pro-inflammatory cytokine production in a microglia cell line; assay type: cell-based, mouse
Excerpt: The direct effect of DMM on microglia was examined by conducting an in vitro experiment using a microglia cell line (BV2).
as §1

[4] = cultured microglial cells, 100 ng/ml LPS + 1 mM or 10 mM DMM
[5] = mouse BV-2, concentration not given

SMILES: COC(=O)CC(=O)OC [DMM, dimethyl malonate]
- RGC survival after ONC [1]: significantly improved
- SDH activity in the retina [2]: lowered
- mitochondrial ROS production (mitochondrial ROS): significantly alleviated
- response of microglia to LPS ([3]; BV2, DMM 1 or 10 mM): significantly attenuated
- production of IL1A [3, 4]: significantly reduced
- production of MCP-1 [3, 4]: significantly reduced
- LPS-induced production of IL-1α [3, 5]: effectively reduced
- LPS-induced production of IL-6 [3, 5]: effectively reduced
- LPS-induced production of MCP-1 [3, 5]: effectively reduced
